# Experimental data as given in patent publication US20140363530A1, “COMPOSITION COMPRISING THE EXTRACT OF PINE TREE LEAF OR THE COMPOUNDS ISOLATED THEREFROM FOR THE PREVENTION AND TREATMENT OF CANCER DISEASE BY INHIBITING HPV VIRUS AND THE USES THEREBY” (priority 2012, published 2014).
# Where two headings read alike, the source gives them in different places.
# How the values were obtained:
# [1] = test system: MES-SA (human uterine carcinoma); assay: SRB cytotoxicity test, MES-SA; assay type: cell-based; conditions: Homo sapiens, MES-SA, 48 h
# Experimental: (§1) To determine the cytotoxicity against human tumor cell line of the test samples prepared in Examples, following sulforhodamin B (SRB) bioassy test was performed according to the method disclosed in the literature (Skehan, P., et al., J. Natl. Cancer Inst., 82, 1990, 1107-1112).
# (§2) Various human tumor cell lines, i.e., A-549 (human adenocarcinoma of lung, NCI), SK-OV-3 (human ovarian tumor, NCI), SK-MEL-2 (human malignant melanoma, NCI), HCT15 (human colon adenocarcinoma, NCI), MES-SA (human uterine carcinoma, NCI) and MES-SA/DX5 (multidrug resistant carcinoma subline of MES-SA, NCI) were used in the test.
# (§3) The subcultured cell lines were detached from the surface of wall using by trypsin-EDTA solution and adjusted to various concentration of cell lines, i.e., 5×10^3 cells/well (A-549, HCT15), 1×10^4 cells/well (SK-MEL-2), 5×10^3 cells/well (SK-OV-3) in 96-well flat bottom microplate. The inoculated cell lines were incubated in CO2 incubator (MCO-20AIC, SANYO Electric Co., LTd.) to be attached on the bottom of incubator and the culture media was removed with aspirator. 6 logarithmic concentrations of the diluted test samples were added to each well containing cell line at 100 μl/well in a three fold dilution manner and the cell was incubated for 48 hours. The culture media in each well was removed and 100μ of 10% trichloroacetic acid was added thereto to be left alone at 4° C. for 1 hour and to fix the cells to the bottom of the plates. […] The cell plates were shaked with titer plate shaker (KOMA Orbital Shaker KE011, KOMABIOTech) for 10 mins to exude the staining solution and to determine the absorbance at 520 nm using by microplate spectrophotometer (Sunrise, TECAN).
# [2] = test system: HCT15 (human colon adenocarcinoma); assay: SRB cytotoxicity test, HCT15; assay type: cell-based; conditions: Homo sapiens, HCT-15, 48 h
# Experimental: as §1, §2, §3
# HCT15/CL02 = assay: SRB cytotoxicity test, HCT15/CL02; assay type: cell-based, human; conditions: Homo sapiens, HCT-15; Table 4, 48 hours
# Experimental: To determine the cytotoxicity against human tumor cell line of the test samples prepared in Examples, following sulforhodamin B (SRB) bioassy test was performed according to the method disclosed in the literature (Skehan, P., et al., J. Natl. […] The inoculated cell lines were incubated in CO2 incubator (MCO-20AIC, SANYO Electric Co., LTd.) to be attached on the bottom of incubator and the culture media was removed with aspirator. 6 logarithmic concentrations of the diluted test samples were added to each well containing cell line at 100 μl/well in a three fold dilution manner and the cell was incubated for 48 hours. […] The cell plates were shaked with titer plate shaker (KOMA Orbital Shaker KE011, KOMABIOTech) for 10 mins to exude the staining solution and to determine the absorbance at 520 nm using by microplate spectrophotometer (Sunrise, TECAN).
# HPV16 PVs [3] = assay: Virus inhibition test (in vitro), SEAP activity of 293TT cells infected with HPV pseudovirion; assay type: cell-based; conditions: Human papillomavirus 16, read-out: inhibitory activity from HPV16 PVs
# Experimental: Prior to in vitro antiviral assay, 5×10^3 of 293TT cell was seeded on 96-well plate and incubated at 37° C. for 16 hours in 5% CO2 atmosphere. The culture media was removed and each extract was diluted to the concentration of 100 μg/ml or 50 μg/ml to distribute into each cell at the dose of 100 μl/cell. After treating with the extract for 16 hours, the culture media was removed and the cell was washed with PBS twice. The cell was infected by 106RLU/ml of HPV PVs at the dose of 100 μl/cell and incubated for 48 hours at 37° C. in 5% CO2 atmosphere. To determine the viral activity, the supernatant of the cell culture was used for determine the activity of secreted alkaline phosphatase (SEAP) using by Great EscAPE™ SEAP Chemiluminescence Kit (631738, Clontech, CA, USA). To determine the SEAP activity, relative light units (RLU) value was obtained using by Luminescence coulter (Micro beta triLux 1450, PerkinElmer, CT, USA) and the RLU values of the cell treated with the extract and untreated with the extract, were compared with each other. The decrease of SEAP activity was regarded as the inhibition effect against HPV PVs.
# To determine the inhibitory effect on luciferase-comprising HPV virus contagion of the test samples prepared in Examples, following test was performed according to the method disclosed in the literature (Shaneyfelt et al., Virology Journal, 3:68, 2006, 1-11; Roden et al., J. Virol., 70, 1996, 5875-5883; Unckell et al., J. Virol., 71, 1997, 2934-2939; Touze et al., Nucleic Acids Research, 26, 1998, 1317-1323; Selinka et al., J. Virol., 77, 2003, 12961-12967; Klasse et al., Journal of General Virology, 83, 2002, 2091-2108)
# 5×10^3293TT cell was seeded on 96-well plate and incubate for 16 hours. 50 μg of test sample was mixed with the culture media in the concentration of 100 ug/ml and incubated for 16 hours. The media was washed with 100 μl of PBS twice and the cell was infected with 10^6RLU/ml of HPV pseudovirion at the dose of 100 μl/cell to incubate at 37° C., for 48 hours in 5% CO2 atmosphere.
# 5× lysis buffer in Great EscAPE™ SEAP Chemiluminescence Kit (631738, Clontech, CA, USA) was made to 1× and both of 45 μl of 1× lysis buffer and 15 μl of cell culture medium were added to 96-well plate (3912, Costar, NY, USA). 60 μl of the substrate in Great EscAPE™ SEAP Chemiluminescence kit was added thereto and the relative light units (RLU) value was obtained using by Luminescence coulter (Micro beta triLux 1450, PerkinElmer, CT, USA). The RLU values of the cell treated with the extract and untreated with the extract, were compared with each other and the decrease of SEAP activity was regarded as the inhibition effect against HPV PVs.
# [4] = test system: MES-SA/DX5 (multidrug resistant carcinoma subline of MES-SA); assay: SRB cytotoxicity test, MES-SA/DX5; assay type: cell-based, human; conditions: Homo sapiens, MES-SA/Dx5, 48 h, read-out: Cytotoxicity IC50, MES-SA/DX5
# Experimental: as §1, §2, §3
# [5] = test system: SK-OV-3 (human ovarian tumor); assay: SRB cytotoxicity test, SK-OV-3; assay type: cell-based; conditions: Homo sapiens, read-out: Cytotoxicity IC50, SK-OV-3
# Experimental: as §1, §2, §3
# [6] = test system: A-549 (human adenocarcinoma of lung); assay: SRB cytotoxicity test, A-549; assay type: cell-based; conditions: Homo sapiens, read-out: Cytotoxicity IC50, A-549
# Experimental: as §1, §2, §3
# [7] = test system: SK-MEL-2 (human malignant melanoma); assay: SRB cytotoxicity test, SK-MEL-2; assay type: cell-based; conditions: Homo sapiens, read-out: Cytotoxicity IC50, SK-MEL-2
# Experimental: as §1, §2, §3
# HPV16 PVs [8] = assay: Virus inhibition test (in vitro), SEAP activity of 293TT cells infected with HPV pseudovirion; assay type: cell-based; conditions: Human papillomavirus 16, read-out: inhibitory activity on HPV16 PVs
# [9] = Table 4, 48 hours, read-out: Cytotoxicity IC50, MES-SA
# [10] = Table 4, 48 hours, read-out: Cytotoxicity IC50, HCT15
# [11] = Table 3, 48 hours, read-out: Cytotoxicity IC50, MES-SA
# [12] = Table 3, 48 hours, read-out: Cytotoxicity IC50, HCT15
SMILES,"IC50 [1, 9]","IC50 [2, 10]",IC50 (HCT15/CL02),inhibition at 50 µg/mL (HPV16 PVs [3]),IC50 [4],"IC50 ([5]; SK-OV-3, 48 h)","IC50 ([6]; A549, 48 h)","IC50 ([7]; SK-MEL-2, 48 h)","IC50 [1, 11]","IC50 ([5]; SK-OV-3, Table 3, 48 hours)","IC50 ([6]; A549, Table 3, 48 hours)","IC50 [2, 12]","IC50 ([7]; SK-MEL-2, Table 3, 48 hours)",other results
"CC(C)c1ccc2c(c1)[C@H](O)CC1[C@](C)(C(=O)O)CCC[C@]21C (stereo partly drawn) [compound (f), 7α-hydroxycallitirisic acid]",26.8 µg/mL,> 30 µg/mL,> 30 µg/mL,70 to 80%,27.4 µg/mL,,,,,,,,,
"CC(C)(O)c1ccc2c(c1)C(=O)C[C@H]1[C@](C)(C(=O)O)CCC[C@]21C [compound (g), 7-oxo-15-hydroxydehydroabietic acid]",> 30 µg/mL,> 30 µg/mL,> 30 µg/mL,70 to 80%,> 30 µg/mL,,,,,,,,,
"CC(C)c1ccc2c(c1)CC[C@H]1[C@](C)(C(=O)O)CCC[C@]21C [compound (i), dehydroabietic acid]",,,,70 to 80%,12 µg/mL,17.3 µg/mL,13.4 µg/mL,13 µg/mL,,,,,,"IC50 ([1]; read-out: Cytotoxicity IC50, MES-SA): 10.3 µg/mL; IC50 ([2]; read-out: Cytotoxicity IC50, HCT15): 15.7 µg/mL; inhibition at 5 µg/mL (HPV16 PVs [8]): ~50%"
"CC(C)(O)c1ccc2c(c1)CC[C@H]1[C@](C)(C(=O)O)CCC[C@]21C [compound (k), 15-hydroxydehydroabietic acid]",,,,70 to 80%,91.9 µg/mL,,,,90.7 µg/mL,142 µg/mL,109 µg/mL,98.2 µg/mL,88.8 µg/mL,
"C=C1CC[C@H]2O[C@]2(C)CC[C@@H]2[C@@H]1CC2(C)C [compound (l), caryophyllene oxide]",,,,70 to 80%,17.7 µg/mL,,,,15.2 µg/mL,23.7 µg/mL,36.4 µg/mL,26.8 µg/mL,18.6 µg/mL,
"COc1cccc2c1C(=O)c1c(O)c3c(c(O)c1C2=O)C[C@@](O)(C(=O)CO)C[C@@H]3O[C@H]1C[C@H](N)[C@H](O)[C@H](C)O1 [doxorubicin, reference compound]",,,2.11 µg/mL,,,0.0104 µg/mL,0.0072 µg/mL,0.0012 µg/mL,,,,,,"IC50 ([1]; read-out: Cytotoxicity IC50, MES-SA, Table 1, extract and solvent fractions, 48 hours): 0.0002 µg/mL; IC50 ([1]; read-out: Cytotoxicity IC50, MES-SA, Table 2, purified extracts, 48 hours): 0.0002 µg/mL; IC50 ([1]; read-out: Cytotoxicity IC50, MES-SA, Table 3, 48 hours): 0.0051 µg/mL; IC50 ([1]; read-out: Cytotoxicity IC50, MES-SA, Table 4, 48 hours): 0.0051 µg/mL; IC50 ([2]; read-out: Cytotoxicity IC50, HCT15, Table 3, 48 hours): 0.0833 µg/mL; IC50 ([2]; read-out: Cytotoxicity IC50, HCT15, Table 4, 48 hours): 0.016 µg/mL; IC50 ([4]; Table 1, extract and solvent fractions, 48 hours): 0.412 µg/mL; IC50 ([4]; Table 2, purified extracts, 48 hours): 0.412 µg/mL; IC50 ([4]; Table 3, 48 hours): 1.45 µg/mL; IC50 ([4]; Table 4, 48 hours): 1.45 µg/mL"
